Laboratory results taken from publication PMC6588697, “Lugdunin amplifies innate immune responses in the skin in synergy with host- and microbiota-derived factors” (Nature Communications, 2019).
“And” between values parts separate entries of the source, which are not always exact repeats. Identical values can stand only once.

How the values were obtained:
[1] = system: PHKs; test: AMP gene expression in PHKs (qRT-PCR, normalized to actin); type: cell-based, human; conditions: 20 h, 2 µM lugdunin and/or S. epidermidis CM, medium = 1, two technical replicates, Fig 1c
Method: Fig. 1 Lugdunin sensitizes epithelial cells for innate immune defense. a Primary human keratinocytes (PHKs) were pretreated with S. epidermidis conditioned medium (CM), indicated lugdunin concentrations, or the combination of both for 20 h. Subsequently, cells were infected with S. aureus for 1.5 h followed by cell lysis and determination of colony-forming units (CFUs). Shown is one representative experiment of three independent experiments with six technical replicates ± s.e.m. n.s., not significant. b Dorsal skin of mice was pretreated with S. epidermidis CM, 1.5 µg lugdunin alone or in combination with S. epidermidis CM for 24 h. Subsequently, S. aureus CFUs were determined. Horizontal lines represent the mean of each group ± s.e.m. c PHKs were treated with 2 μM lugdunin or with S. epidermidis CM alone or in combination for 20 h and subsequently expression of indicated antimicrobial peptides (AMPs) (respective protein names in brackets) was analyzed and normalized to actin. Shown is one representative experiment of three independent experiments with two technical replicates ± s.e.m. d PHKs were treated with 2 µM lugdunin or 100 ng/mL Pam2Cys for 5 h and subsequently the concentration of indicated cytokines in the supernatant was analyzed by LEGENDplex^TM (BioLegend). Shown is one representative experiment of three independent experiments with two technical replicates ± s.e.m. e PHKs were treated with increasing concentrations of lugdunin or 100 ng/mL Pam2Cys or Pam3Cys for 5 h and subsequently expression of chemokine (C-X-C motif) ligand 8 (CXCL8) was analyzed and normalized to actin. Shown is one representative experiment of three independent experiments, each with two technical replicates ± s.e.m. f, g Indicated cells were treated with 2 µM lugdunin or 100 ng/mL Pam2Cys as a positive control for 5 h and subsequently the concentration of CXCL8 (f) and interleukin-1α (IL-1α) (g) in the supernatant was analyzed by LEGENDplex^TM (BioLegend) and enzyme-linked immunosorbent assay (ELISA) (R&D Systems). Shown is one representative experiment of three independent experiments with two technical replicates ± s.e.m. Significant differences to control treatments were analyzed by ordinary one-way analysis of variance (ANOVA) followed by Dunnett’s multiple comparisons test (*P < 0.05; **P < 0.01; ***P < 0.001; ****P < 0.0001). n.d. = not detected. Source data are provided as a Source Data file
After 5 h or 20 h of peptide treatment, PHKs were washed once with PBS, followed by the addition of RNA lysis buffer directly into the well. Total RNA was extracted using the Nucleospin RNA Kit (Macherey-Nagel) according to the manufacturer’s protocol. Complementary DNA was synthesized using the Reverse-Transkriptase Kit (Thermo Scientific) with 2 µg of RNA, 4 µL of 5× RT buffer, 0.5 µL Maxima reverse transcriptase ([…]), 1 µL of random hexamer primer (100 µM), dNTP (10 mM), and RNAse-free water to a total volume of 20 µL. After pre-incubation of RNA with water for 10 min at 70 °C, master mix was added and incubated for 10 min at 25 °C, followed by 45 min at 50 °C and a final heat inactivation step for 5 min at 85 °C.
Quantitative reverse transcription-polymerase chain reaction (qRT-PCR) was performed in 10 µL reaction volume with SYBR^TM Green PCR Master Mix (Thermo Fisher) according to the manufacturer’s instructions using a LightCycler 96 (Roche Life Science). […]
11 subsequently expression of CAMP (LL-37) was analyzed and normalized to actin. […]

[2] = system: HNEpCs; test: CXCL8 expression in HNEpCs (qRT-PCR); type: cell-based, human; conditions: 5 h, two technical replicates
Method: Quantitative reverse transcription-polymerase chain reaction (qRT-PCR) was performed in 10 µL reaction volume with SYBR^TM Green PCR Master Mix (Thermo Fisher) according to the manufacturer’s instructions using a LightCycler 96 (Roche Life Science). The initial denaturation step was at 95 °C for 5 min, followed by 40 cycles with 10 s each for the denaturation step at 95 °C, the annealing at individual temperature, and the elongation at 72 °C. Primer sequences and respective annealing temperatures are listed in Supplementary Table 1. […]
31 g+h+i: HNEpCs (b), HTEpCs (c) or PBMCs (d) were treated with increasing
32 concentrations of lugdunin (grey bars) or 100 ng/mL Pam2Cys or Pam3Cys (white
33 bars) as positive controls for 5 hours and subsequently expression of CXCL8 was
34 analyzed and normalized to actin. Black bar: medium control. Shown is one
35 representative experiment of three independent experiments with two technical
36 replicates +/-s.e.m. Significant differences to control treatments were analyzed by
37 ordinary one-way ANOVA followed by Dunnett’s multiple comparisons test (*P<0.05; […]

[3] = system: S. aureus; test: Adhesion and invasion assay: S. aureus on pretreated PHKs (CFU); type: cell-based, Staphylococcus aureus; conditions: lugdunin alone; text to Fig 1a
Method: (§1) Fig. 1 Lugdunin sensitizes epithelial cells for innate immune defense. a Primary human keratinocytes (PHKs) were pretreated with S. epidermidis conditioned medium (CM), indicated lugdunin concentrations, or the combination of both for 20 h. Subsequently, cells were infected with S. aureus for 1.5 h followed by cell lysis and determination of colony-forming units (CFUs). Shown is one representative experiment of three independent experiments with six technical replicates ± s.e.m. n.s., not significant. b Dorsal skin of mice was pretreated with S. epidermidis CM, 1.5 µg lugdunin alone or in combination with S. epidermidis CM for 24 h. Subsequently, S. aureus CFUs were determined. Horizontal lines represent the mean of each group ± s.e.m. c PHKs were treated with 2 μM lugdunin or with S. epidermidis CM alone or in combination for 20 h and subsequently expression of indicated antimicrobial peptides (AMPs) (respective protein names in brackets) was analyzed and normalized to actin. Shown is one representative experiment of three independent experiments with two technical replicates ± s.e.m. d PHKs were treated with 2 µM lugdunin or 100 ng/mL Pam2Cys for 5 h and subsequently the concentration of indicated cytokines in the supernatant was analyzed by LEGENDplex^TM (BioLegend). […]

[4] = system: S. aureus; test: S. aureus skin colonization after epicutaneous pretreatment of mouse skin (CFU); type: in vivo, C57BL/6 WT mice; conditions: treatment of mouse skin; text to Fig 1b
Method: as §1

Lugdunin
CAMP (LL-37) expression normalized to actin [1]: 189.36 and 213.04 | DEFB1 (HBD-1) expression normalized to actin [1]: 1.91 | DEFB4A (HBD-2) expression normalized to actin [1]: 0.69 and 0.77 | DEFB103A (HBD-3) expression normalized to actin [1]: 1.53 and 1.71 | RNASE7 (RNase7) expression normalized to actin [1]: 2.34 and 2.18 | CXCL8 fold induction ([2]; lugdunin 0.5 µM, sheet Supp Fig 1f): 2.151 and 2.454 | CXCL8 fold induction ([2]; lugdunin 1 µM): 2.621 | CXCL8 fold induction ([2]; lugdunin 2 µM): 6.148 and 8.056 | CXCL8 fold induction ([2]; lugdunin 3 µM): 5.836 and 8.253 | CXCL8 fold induction ([2]; lugdunin 5 µM): 4.724 and 6.453 | CXCL8 fold induction ([2]; lugdunin 10 µM): 1.659 and 2.014 | lugdunin concentration at which pretreatment of PHKs significantly reduced the number of adhering S. aureus [3]: ≥ 2 µM | reduction of colonizing S. aureus (in words) [4]: slight, but not significant, reduction
